Assay results from patent EP1935986B1, “Luminogenic and fluorogenic compounds and methods to detect molecules or conditions” (priority 2005, dated 2006).
Values joined by “and” are separate entries in the source; they are usually repeats but may differ in a detail not shown here. Equal entries are not always repeated.

Columns and labels:
beta-glucuronidase (GUS) = molecular target: T1, beta-glucuronidase (GUS) (Homo sapiens, UniProt P08236); experiment: Beta-glucuronidase assay with luciferin 6'-glucuronide (luminescent) or 4-methylumbelliferyl glucuronide (fluorescent); assay type: biochemical; details: for limit-of-detection: GUS enzyme detected, luminescent vs fluorescent substrate
T1 construct: purchased Sigma-Aldrich
T1 sequence (P08236 23-651): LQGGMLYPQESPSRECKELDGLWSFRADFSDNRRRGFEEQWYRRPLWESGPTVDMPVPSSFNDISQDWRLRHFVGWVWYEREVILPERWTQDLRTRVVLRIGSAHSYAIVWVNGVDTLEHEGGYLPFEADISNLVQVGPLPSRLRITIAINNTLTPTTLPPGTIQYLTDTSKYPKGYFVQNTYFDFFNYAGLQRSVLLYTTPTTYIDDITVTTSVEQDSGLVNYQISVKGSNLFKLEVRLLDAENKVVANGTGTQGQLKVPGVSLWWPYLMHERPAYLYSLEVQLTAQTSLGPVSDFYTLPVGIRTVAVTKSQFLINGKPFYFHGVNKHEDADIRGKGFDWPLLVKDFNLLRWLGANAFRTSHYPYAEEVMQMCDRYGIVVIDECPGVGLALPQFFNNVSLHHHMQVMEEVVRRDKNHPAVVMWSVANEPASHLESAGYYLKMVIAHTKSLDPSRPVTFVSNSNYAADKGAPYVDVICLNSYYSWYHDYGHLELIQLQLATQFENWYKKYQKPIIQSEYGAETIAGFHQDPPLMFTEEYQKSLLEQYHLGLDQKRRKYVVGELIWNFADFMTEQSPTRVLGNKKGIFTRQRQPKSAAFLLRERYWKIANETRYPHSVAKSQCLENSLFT
Description: The source of the human enzyme was Sigma-Aldrich. GUS was incubated with the substrate in 50 mM MES, pH 6.3, for 15 minutes. […]

luciferase = experiment: No-enzyme control: activity of luciferase towards the luciferin derivative (background luminescence)
Description: The reactions (Table 1) were assembled by first adding the water and 1 M BisTris solutions in individual 0.5 ml microfuge tubes, then adding the other components except for the GST #3 solution. Finally, the GST #3 (Figure 12) solution was added to the reactions, the resulting solution was mixed, and the time of addition noted. […]
The GST #3 addition was performed last and the solutions were mixed immediately after addition of GST #3. […] After mixing, the light produced by the solution was measured using a Turner TD 20/20 luminometer.
After assembly, the enzyme stock solutions were diluted 1:10 into 10 mM HEPES, pH 7.5 and the following additions were made to the reactions.
A 5 µl sample of the luciferol DMF solution was added to each of the reactions above and a timer was started upon the addition of the first luciferol/DMF solution to reaction 1. All reactions were kept at room temperature.
After incubating 5 minutes at room temperature, the light produced by these samples was measured using a Turner TD 20 luminometer.
To initiate the conversions, 5 µl of luciferol solution was added to reactions […], 6-9, and 11-15, and 10 µl of luciferol was added to reactions 5 and 10 and the tubes mixed after that addition. Immediately after luciferol addition to reaction 1, a timer was started and the time of luciferol addition to the other tubes noted. After mixing, reaction 11-15 were placed at 37°C.
After incubating 10 minutes at room temperature, the light produced by these samples was read using a Turner TD 20 luminometer (Table 18).
To initiate Step 1, 45 µl of enzyme and buffer were added to each well.
Solution A and Solution B are components of the NADPH Regeneration System (V9510, Promega Corp., Madison WI). […] Solution B contains 40 units/ml glucose-6-phosphate dehydrogenase in 5 mM citrate pH 5.5.

[1] = tested on: calf intestinal alkaline phosphatase; experiment: Luminescent alkaline phosphatase assay with AP 4, luciferase and ATP; assay type: biochemical; details: 1 µM AP 4
Description: Alkaline Phosphatase (Promega Corp. M1821) was diluted in 50 mM Tris Cl, pH 9.3, 1 mM MgCl2, 0.1 mM ZnCl2 to a concentration of 1 fmol/µl to 0.01 zeptomole/µl.
A reaction solution was assembled containing 1 µM AP 4 (Figure 69); 100 µg/ml of the thermostable luciferase, 2 mM ATP; 10 mM MgCl2; 100 µM ZnCl2 in 50 mM Tris Cl, pH 8.5. This solution was allowed to incubate for 1 hour at room temperature to reduce background light production.
Quadruplicate wells in a luminometer plate (Nunc Maxisorb plate) were given 10 µl of the diluted alkaline phosphatase stocks and 100 µl of reaction solution. The plate was incubated at room temperature for 30 minutes, then the light produced by the solutions was measured using a Veritas Luminometer.

[2] = tested on: thermostable luciferase (Luc 146-1H2); experiment: Residual thermostable luciferase activity after reaction with luciferin derivatives (Steady Glo); assay type: biochemical; details: Substrate 100
Description: This stock was used to produce enzyme stock solution having of 200 µg/ml enzyme solution in 1 mg/ml BSA, 200 mM HEPES buffer, pH 8.0, 20 mM MgCl2.
Solutions were made using a 1 M DTT solution, pH adjusted to 8.0, a 20 mM Coenzyme A solution in water (both described in examples above), a 100 mM ATP solution and water to create the following solutions: Sol'A, 100 µM ATP; Sol'B, 100 µM ATP, 4 mM Coenzyme A; Sol'n C, 100 µM ATP, 400 mM DTT, and; Sol'n D, 100 µM ATP, 4 mM Coenzyme A and 400 mM DTT.
After assembly, the reactions were initiated by addition of 25 µl of the thermostable luciferase stock solution above and mixing the tube contents. A 50 µl sample was immediately removed and placed in a luminometer tube and the light read and the tube then replaced in a tube rack at room temperature. While the light reading was being taken, a 5 µl sample of the remaining reaction (which was kept at room temperature) was diluted into 495 µl of 50 mM BisTris, pH 6.5, 1 mg/ml BSA, 1 mM EDTA prechilled to 4°C and the tube mixed and placed on ice. The light produced by the samples in the luminometer tubes were re-read at 20, 40, 60, 90 and 120 minutes post enzyme addition. Additional 5 µl samples were taken and diluted as above at 60 and 120 minutes post enzyme addition. Once all these readings and samples were taken, 50 µl of the diluted samples was mixed with 50 µl of Steady Glo in luminometer tubes, the tubes incubated 10 minutes on ice then the light produced was read on a Turner TD 20/20 luminometer.

O=C(O)[C@H]1O[C@@H](Oc2ccc3nc(C4=N[C@@H](C(=O)O)CS4)sc3c2)[C@H](O)[C@@H](O)[C@@H]1O [Luciferin 6'-glucuronide]
limit-of-detection (beta-glucuronidase (GUS)): 0.28 ng/mL | signal-to-noise, luminescence (beta-glucuronidase (GUS); [GUS] 4.3 ng/ml): 68 | signal-to-noise, luminescence (beta-glucuronidase (GUS); [GUS] 8.7 ng/ml): 133 | signal-to-noise, luminescence (beta-glucuronidase (GUS); [GUS] 34.7 ng/ml): 649 | signal-to-noise, luminescence (beta-glucuronidase (GUS); [GUS] 69.4 ng/ml): 1411 | signal-to-noise, luminescence (beta-glucuronidase (GUS); [GUS] 138.8 ng/ml): 3104 | signal-to-noise, luminescence (beta-glucuronidase (GUS); [GUS] 277.5 ng/ml): 7300

OC[C@H]1CSC(c2nc3ccc(O)cc3s2)=N1 [luciferol]
light produced (luciferase; Table 18 Rx 1: no enzyme, KPO4 pH 7.4, room temperature, 30/60/95/190/280 minutes): 6.077 and 6.091 and 5.849 and 4.364 and 7.694 | light produced (luciferase; Table 18 Rx 11: no enzyme, 37°C, time): 5.814 and 6.078 and 6.302 and 6.889 and 8.399

O=C(O)[C@H]1CSC(c2nc3ccc(OCc4ccc(OP(=O)(O)O)cc4)cc3s2)=N1 [AP-4, 6-(4-phosphoric acid benzylether) luciferin]
Avg Reading (luciferase): 2624.5 | light reading, Reaction 1 (luciferase): 2620 | light reading, Reaction 2 (luciferase): 2735 | light reading, Reaction 3 (luciferase): 2612 | light reading, Reaction 4 (luciferase): 2531 | Net Reading ([1]; # AP molecules 0): 0 | Avg Reading ([1]; # AP molecules 6): 2714.67 | Net Reading ([1]; # AP molecules 6): 89 | light reading, Reaction 1 ([1]; # AP molecules 6): 2706 | light reading, Reaction 2 ([1]; # AP molecules 6): 2807 | light reading, Reaction 3 ([1]; # AP molecules 6): 2631 | Avg Reading ([1]; # AP molecules 60): 2772.5 | Net Reading ([1]; # AP molecules 60): 148 | light reading, Reaction 1 ([1]; # AP molecules 60): 2920 | light reading, Reaction 2 ([1]; # AP molecules 60): 2795 | light reading, Reaction 3 ([1]; # AP molecules 60): 2728 | light reading, Reaction 4 ([1]; # AP molecules 60): 2647 | Avg Reading ([1]; # AP molecules 600): 3079.8 | Net Reading ([1]; # AP molecules 600): 455 | light reading, Reaction 1 ([1]; # AP molecules 600): 3118 | light reading, Reaction 2 ([1]; # AP molecules 600): 3051 | light reading, Reaction 3 ([1]; # AP molecules 600): 3345 | light reading, Reaction 4 ([1]; # AP molecules 600): 2805 | Avg Reading ([1]; # AP molecules 6,000): 3185 | Net Reading ([1]; # AP molecules 6,000): 560 | light reading, Reaction 1 ([1]; # AP molecules 6,000): 3189 | light reading, Reaction 2 ([1]; # AP molecules 6,000): 3144 | light reading, Reaction 3 ([1]; # AP molecules 6,000): 3002 | light reading, Reaction 4 ([1]; # AP molecules 6,000): 3405 | Avg Reading ([1]; # AP molecules 60,000): 5685.3 | Net Reading ([1]; # AP molecules 60,000): 3060 | light reading, Reaction 1 ([1]; # AP molecules 60,000): 5956 | light reading, Reaction 2 ([1]; # AP molecules 60,000): 5641 | light reading, Reaction 3 ([1]; # AP molecules 60,000): 5416 | light reading, Reaction 4 ([1]; # AP molecules 60,000): 5728 | Avg Reading ([1]; # AP molecules 600,000): 30658.5 | Net Reading ([1]; # AP molecules 600,000): 28034 | light reading, Reaction 1 ([1]; # AP molecules 600,000): 30042 | light reading, Reaction 2 ([1]; # AP molecules 600,000): 31132 | light reading, Reaction 3 ([1]; # AP molecules 600,000): 29781 | light reading, Reaction 4 ([1]; # AP molecules 600,000): 31679 | Avg Reading ([1]; # AP molecules 6,000,000): 274510.5 | Net Reading ([1]; # AP molecules 6,000,000): 271886 | light reading, Reaction 1 ([1]; # AP molecules 6,000,000): 281115 | light reading, Reaction 2 ([1]; # AP molecules 6,000,000): 254693 | light reading, Reaction 3 ([1]; # AP molecules 6,000,000): 265592 | light reading, Reaction 4 ([1]; # AP molecules 6,000,000): 296642 | Avg Reading ([1]; # AP molecules 60,000,000): 2394497 | Net Reading ([1]; # AP molecules 60,000,000): 2391872 | light reading, Reaction 1 ([1]; # AP molecules 60,000,000): 2639163 | light reading, Reaction 2 ([1]; # AP molecules 60,000,000): 2283882 | light reading, Reaction 3 ([1]; # AP molecules 60,000,000): 2320675 | light reading, Reaction 4 ([1]; # AP molecules 60,000,000): 2334267

O=C(O)[C@H]1CSC(c2nc3ccc(OCCCl)cc3s2)=N1 [L' in-CEE]
light values obtained upon addition of the diluted reaction samples into Steady Glo reagent ([2]; + Co A & DTT, Time Sample Taken 0 min): 1745 | light values obtained upon addition of the diluted reaction samples into Steady Glo reagent ([2]; + Co A & DTT, Time Sample Taken 60 min): 1319 | light values obtained upon addition of the diluted reaction samples into Steady Glo reagent ([2]; + Co A & DTT, Time Sample Taken 120 min): 1343 | light values obtained upon addition of the diluted reaction samples into Steady Glo reagent ([2]; + Co A, Time Sample Taken 0 min): 1127 | light values obtained upon addition of the diluted reaction samples into Steady Glo reagent ([2]; + Co A, Time Sample Taken 60 min): 1055 | light values obtained upon addition of the diluted reaction samples into Steady Glo reagent ([2]; + Co A, Time Sample Taken 120 min): 770.5 | light values obtained upon addition of the diluted reaction samples into Steady Glo reagent ([2]; + DTT, Time Sample Taken 0 min): 1168 | light values obtained upon addition of the diluted reaction samples into Steady Glo reagent ([2]; + DTT, Time Sample Taken 60 min): 501.5 | light values obtained upon addition of the diluted reaction samples into Steady Glo reagent ([2]; + DTT, Time Sample Taken 120 min): 1478 | light values obtained upon addition of the diluted reaction samples into Steady Glo reagent ([2]; Alone, Time Sample Taken 0 min): 1262 | light values obtained upon addition of the diluted reaction samples into Steady Glo reagent ([2]; Alone, Time Sample Taken 60 min): 1203 | light values obtained upon addition of the diluted reaction samples into Steady Glo reagent ([2]; Alone, Time Sample Taken 120 min): 1273

Cc1cc(=O)oc2cc(O[C@@H]3O[C@H](C(=O)O)[C@@H](O)[C@H](O)[C@H]3O)ccc12 [4-methylumbelliferyl glucuronide, reference compound]
Km (beta-glucuronidase (GUS); 50 mM MES, pH 6.3): 59 ± 8 µM | limit-of-detection (beta-glucuronidase (GUS)): 2.01 ng/mL
